Read-outs that look alike come from different tables or passages of the source.
Columns and labels:
[1] = test system: Ub^G76V–GFP (p97-dependent reporter); experiment: Ub^G76V–GFP reporter degradation assay, dual reporter HeLa cell line; type: cell-based; details: read-out: IC50 Ub^G76V–GFP, triplicate, mean ±SD
p97 ATPase = p97 ATPase (Homo sapiens, UniProt P55072); experiment: p97 ATPase assay; type: biochemical; details: triplicate, mean ±SD
HCT15 = experiment: Cytotoxicity / antiproliferative activity; type: cell-based; details: Homo sapiens
ubiquitin conjugates = experiment: Ubiquitin conjugate accumulation immunoblot, SW403 cells; details: 5–10 μM; nuclear plus membrane and cytosolic compartments
SW403 = experiment: Cytotoxicity / antiproliferative activity; type: cell-based; details: Homo sapiens
[2] = test system: ODD-Luc (p97-independent proteasome substrate); experiment: ODD-Luc reporter degradation assay, dual reporter HeLa cell line; type: cell-based; details: Homo sapiens, read-out: IC50 ODD-Luc
[3] = test system: HMEC, PHMLEB, PHMLER cells; experiment: Cellular viability; type: cell-based, human; details: 24 h, CellTiter-Glo
∼170 kinases = experiment: KiNativ kinase profiling, whole panel, PC3 cell lysate; type: binding, Homo sapiens; details: 20 μM
[4] = HCT-15, 24 h, read-out: Cytotoxicity GI50 HCT15 24 h
[5] = HCT-15, 72 h, read-out: Cytotoxicity GI50 HCT15 72 h
[6] = SW-403, 24 h, read-out: Cytotoxicity GI50 SW403 24 h
[7] = SW-403, 72 h, read-out: Cytotoxicity GI50 SW403 72 h

p97 ATPase, sequence (P55072 whole entry): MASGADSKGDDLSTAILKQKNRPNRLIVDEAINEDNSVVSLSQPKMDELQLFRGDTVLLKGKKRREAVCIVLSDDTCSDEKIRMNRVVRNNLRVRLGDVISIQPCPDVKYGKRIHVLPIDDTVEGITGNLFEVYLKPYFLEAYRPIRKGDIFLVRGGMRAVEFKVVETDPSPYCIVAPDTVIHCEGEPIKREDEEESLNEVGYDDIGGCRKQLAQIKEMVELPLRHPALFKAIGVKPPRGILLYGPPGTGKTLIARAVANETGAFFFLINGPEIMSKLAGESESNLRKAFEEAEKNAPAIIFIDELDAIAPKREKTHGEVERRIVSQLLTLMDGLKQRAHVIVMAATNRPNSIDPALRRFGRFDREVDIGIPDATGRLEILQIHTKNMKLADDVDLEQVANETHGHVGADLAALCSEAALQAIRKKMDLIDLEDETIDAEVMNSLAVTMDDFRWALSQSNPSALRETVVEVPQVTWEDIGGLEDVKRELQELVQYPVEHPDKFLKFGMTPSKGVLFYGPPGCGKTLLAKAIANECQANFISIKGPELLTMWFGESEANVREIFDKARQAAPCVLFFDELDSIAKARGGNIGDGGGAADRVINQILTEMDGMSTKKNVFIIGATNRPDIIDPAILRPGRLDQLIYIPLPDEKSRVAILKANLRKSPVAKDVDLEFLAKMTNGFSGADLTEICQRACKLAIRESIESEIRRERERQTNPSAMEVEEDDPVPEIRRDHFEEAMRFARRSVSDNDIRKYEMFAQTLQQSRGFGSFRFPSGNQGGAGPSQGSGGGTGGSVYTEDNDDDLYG

Compound	GI50 (HCT15; [4])	GI50 (HCT15; [5])	IC50 (p97 ATPase; IC50 ATPase)	GI50 (SW403; [6])	GI50 (SW403; [7])	IC50 [2]	other results
2-(2-Amino-5-bromo-1H-benzo[d]imidazol-1-yl)-N-benzyl-8-methoxyquinazolin-4-amine and 2-(2-Amino-6-bromo-1H-benzo[d]imidazol-1-yl)-N-benzyl-8-methoxyquinazolin-4-amine [compound 24]							IC50 [1]: 30 ± 10 µM; IC50 (p97 ATPase; read-out: IC50 ATPase): 0.8 ± 0.3 µM
2-(2-Amino-5-chloro-1H-benzo[d]imidazol-1-yl)-N-benzyl-8-methoxyquinazolin-4-amine and 2-(2-Amino-6-chloro-1H-benzo[d]imidazol-1-yl)-N-benzyl-8-methoxyquinazolin-4-amine [compound 23]							IC50 [1]: 31 ± 7 µM; IC50 (p97 ATPase; read-out: IC50 ATPase): 0.7 ± 0.3 µM
2-(2-Amino-5-fluoro-1H-benzo[d]imidazol-1-yl)-N-benzyl-8-methoxyquinazolin-4-amine and 2-(2-Amino-6-fluoro-1H-benzo[d]imidazol-1-yl)-N-benzyl-8-methoxyquinazolin-4-amine [compound 30]							IC50 [1]: 6.8 ± 1 µM; IC50 (p97 ATPase; read-out: IC50 ATPase): 0.08 ± 0.02 µM
2-(2-Amino-5-methoxy-1H-benzo[d]imidazol-1-yl)-N-benzyl-8-methoxyquinazolin-4-amine and 2-(2-Amino-6-methoxy-1H-benzo[d]imidazol-1-yl)-N-benzyl-8-methoxyquinazolin-4-amine [compound 26]							IC50 [1]: 0.96 ± 0.2 µM; IC50 (p97 ATPase; read-out: IC50 ATPase): 0.48 ± 0.09 µM
2-(2-Amino-5-methyl-1H-benzo[d]imidazol-1-yl)-N-benzyl-8-methoxyquinazolin-4-amine and 2-(2-Amino-6-methyl-1H-benzo[d]imidazol-1-yl)-N-benzyl-8-methoxyquinazolin-4-amine [compound 25]							IC50 [1]: 2.5 ± 0.5 µM; IC50 (p97 ATPase; read-out: IC50 ATPase): 0.24 ± 0.06 µM
c1ccc(CNc2nc(NCc3ccccc3)c3ccccc3n2)cc1 [DBeQ, N^2,N^4-dibenzylquinazoline-2,4-diamine]	3.2 ± 1 µM	1.8 ± 0.7 µM	1.6 µM	2.2 ± 0.6 µM	1.4 ± 0.5 µM	56 ± 14 µM	accumulation of ubiquitin conjugates (ubiquitin conjugates): caused accumulation of ubiquitin conjugates; potency on normal vs immortalized and tumorigenic cell lines [3]: slightly greater potency toward the immortalized and transformed cells
CO/C1=C\C(C)=C\[C@@H](C)[C@@H](O)[C@@H](C)C/C(C)=C/C=C/[C@H](OC)[C@@H]([C@@H](C)[C@@H](O)[C@H](C)[C@@]2(O)C[C@@H](O)[C@H](C)[C@@H](C(C)C)O2)OC1=O [bafilomycin, reference compound]							potency on normal vs immortalized and tumorigenic cell lines [3]: equal potency
CC(C)C[C@H](NC(=O)[C@H](Cc1ccccc1)NC(=O)c1cnccn1)B(O)O [bortezomib, reference compound]							potency on normal vs immortalized and tumorigenic cell lines [3]: equal potency
c1ccc(Nc2nc(Nc3ccccc3)c3ccccc3n2)cc1 [compound 9, N^2,N^4-Diphenylquinazoline-2,4-diamine]			2.6 ± 0.8 µM				
COc1cccc2c(NCc3ccccc3)nc(NCc3ccccc3)nc12 [compound 14, N^2,N^4-Dibenzyl-8-methoxyquinazoline-2,4-diamine]	1.1 ± 0.3 µM	0.8 ± 0.3 µM		0.8 ± 0.3 µM	0.5 ± 0.2 µM	6.5 ± 1.1 µM	
c1ccc(CNc2nc(N3CCOc4ccccc43)nc3ccccc23)cc1 [compound 15, 2-(2H-Benzo[b][1,4]oxazin-4(3H)-yl)-N-benzylquinazolin-4-amine]	24 ± 3 µM	10 ± 3 µM		21 ± 5 µM	13 ± 4 µM	> 20 µM	
c1ccc(CNc2nc(N3CCOc4ccccc43)nc3ccsc23)cc1 [compound 17, 2-(2H-Benzo[b][1,4]oxazin-4(3H)-yl)-N-benzylthieno[3,2-d]pyrimidin-4-amine]	37 ± 7 µM	16 ± 5 µM		18 ± 10 µM	9.7 ± 3.7 µM	17 ± 2 µM	
COc1cccc2c(NCc3ccccc3)nc(Nc3nc4ccccc4n3C)nc12 [compound 19, N^4-Benzyl-8-methoxy-N^2-(1-methyl-1H-benzo[d]imidazol-2-yl)quinazoline-2,4-diamine]	1.7 ± 0.8 µM	1.4 ± 0.5 µM		1.7 ± 0.7 µM	1.4 ± 0.5 µM	10 ± 2 µM	
COc1cccc2c(NCc3ccccc3)nc(-n3c(N)nc4cc(Cl)c(Cl)cc43)nc12 [compound 21, 2-(2-Amino-5,6-dichloro-1H-benzo[d]imidazol-1-yl)-N-benzyl-8-methoxyquinazolin-4-amine]			25 ± 8 µM				
COc1cccc2c(NCc3ccccc3)nc(-n3c(N)nc4c(F)cccc43)nc12 [compound 27, 2-(2-Amino-4-fluoro-1H-benzo[d]imidazol-1-yl)-N-benzyl-8-methoxyquinazolin-4-amine]			0.043 ± 0.01 µM				
COc1cccc2c(NCc3ccccc3)nc(-n3c(N)nc4cccc(F)c43)nc12 [compound 28, 2-(2-Amino-7-fluoro-1H-benzo[d]imidazol-1-yl)-N-benzyl-8-methoxyquinazolin-4-amine]			0.5 ± 0.1 µM				
COc1cccc2c(NCc3ccccc3)nc(-n3c(N)nc4c(C)cccc43)nc12 [compound 29, 2-(2-Amino-4-methyl-1H-benzo[d]imidazol-1-yl)-N-benzyl-8-methoxyquinazolin-4-amine]			0.045 ± 0.006 µM				
OCCOc1cccc2c(NCc3ccccc3)nc(N3CCOc4ccccc43)nc12 [compound 33, 2-((2-(2H-Benzo[b][1,4]oxazin-4(3H)-yl)-4-(benzylamino)quinazolin-8-yl)oxy)ethanol]	28 ± 3 µM	17 ± 5 µM		42 ± 9 µM	9.4 ± 2.9 µM	> 20 µM	
COCCOc1cccc2c(NCc3ccccc3)nc(N3CCOc4ccccc43)nc12 [compound 34, 2-(2H-Benzo[b][1,4]oxazin-4(3H)-yl)-N-benzyl-8-(2-methoxyethoxy)quinazolin-4-amine]	12 ± 4 µM	9 ± 3 µM		15 ± 7 µM	7.9 ± 2.7 µM	27 ± 5 µM	
CCN(CC)CCOc1cccc2c(NCc3ccccc3)nc(N3CCOc4ccccc43)nc12 [compound 35, 2-(2H-Benzo[b][1,4]oxazin-4(3H)-yl)-N-benzyl-8-(2-(diethylamino)ethoxy)quinazolin-4-amine]	13 ± 5 µM	7.1 ± 2.5 µM		11 ± 5 µM	3.9 ± 1 µM	61 ± 6 µM	
CCCCOc1cccc2c(NCc3ccccc3)nc(N3CCOc4ccccc43)nc12 [compound 37, 2-(2H-Benzo[b][1,4]oxazin-4(3H)-yl)-N-benzyl-8-butoxyquinazolin-4-amine]			2.63 ± 0.7 µM				
COc1cccc2c(NCc3ccccc3)nc(N3CCOc4ccccc43)nc12 [compound 38, 2-(2H-Benzo[b][1,4]oxazin-4(3H)-yl)-N-benzyl-8-methoxyquinazolin-4-amine]	25 ± 5 µM	12 ± 3 µM		43 ± 11 µM	13 ± 4 µM	> 20 µM	
N#CCOc1cccc2c(NCc3ccccc3)nc(N3CCOc4ccccc43)nc12 [compound 39, 2-((2-(2H-Benzo[b][1,4]oxazin-4(3H)-yl)-4-(benzylamino)quinazolin-8-yl)oxy)acetonitrile]			0.4 ± 0.08 µM				
COc1cccc2c(NCc3ccc(F)cc3)nc(N3CCOc4ccccc43)nc12 [compound 40, 2-(2H-Benzo[b][1,4]oxazin-4(3H)-yl)-N-(4-fluorobenzyl)-8-methoxyquinazolin-4-amine]	27 ± 4 µM	8.9 ± 2.3 µM		21 ± 6 µM	9.4 ± 2.6 µM	> 20 µM	
CCCCNc1ncc2c(-c3ccc(F)cc3)nn(C[C@H]3CC[C@H](N)CC3)c2n1 [pyrazolopyrimidine, reference compound]							number of protein kinases (domains) with >50% inhibition of labeling (∼170 kinases): 56
